Patent US20240209028A1, “CNP COMPOUNDS” (priority 2022, published 2024)
Starred links: 1 amine or outer side, 2 acyl side, 3 side chain; linkers in the order of their positions; H or OH if unused. Positions of bridges follow the written chain, without caps; N, C: chain ends. Residues, ends and D or L forms follow the SMILES beside them. *: point of attachment. C18 diacid = O=C(O)CCCCCCCCCCCCCCCCC(=O)*; γGlu = O=C(O)[C@H](CCC(=O)[*:2])N[*:1]; AEEA = NCCOCCOCC(=O)O

Molecular target: T1, human natriuretic peptide receptor 2 (hNPR2) (Homo sapiens, UniProt P20594)
T1 construct: expressed in transfected cells; host or cells: HEK293 (ATCC CRL-1573), clone 35, co-transfected with pGloSensor-42F
T1 sequence (P20594 23-1047): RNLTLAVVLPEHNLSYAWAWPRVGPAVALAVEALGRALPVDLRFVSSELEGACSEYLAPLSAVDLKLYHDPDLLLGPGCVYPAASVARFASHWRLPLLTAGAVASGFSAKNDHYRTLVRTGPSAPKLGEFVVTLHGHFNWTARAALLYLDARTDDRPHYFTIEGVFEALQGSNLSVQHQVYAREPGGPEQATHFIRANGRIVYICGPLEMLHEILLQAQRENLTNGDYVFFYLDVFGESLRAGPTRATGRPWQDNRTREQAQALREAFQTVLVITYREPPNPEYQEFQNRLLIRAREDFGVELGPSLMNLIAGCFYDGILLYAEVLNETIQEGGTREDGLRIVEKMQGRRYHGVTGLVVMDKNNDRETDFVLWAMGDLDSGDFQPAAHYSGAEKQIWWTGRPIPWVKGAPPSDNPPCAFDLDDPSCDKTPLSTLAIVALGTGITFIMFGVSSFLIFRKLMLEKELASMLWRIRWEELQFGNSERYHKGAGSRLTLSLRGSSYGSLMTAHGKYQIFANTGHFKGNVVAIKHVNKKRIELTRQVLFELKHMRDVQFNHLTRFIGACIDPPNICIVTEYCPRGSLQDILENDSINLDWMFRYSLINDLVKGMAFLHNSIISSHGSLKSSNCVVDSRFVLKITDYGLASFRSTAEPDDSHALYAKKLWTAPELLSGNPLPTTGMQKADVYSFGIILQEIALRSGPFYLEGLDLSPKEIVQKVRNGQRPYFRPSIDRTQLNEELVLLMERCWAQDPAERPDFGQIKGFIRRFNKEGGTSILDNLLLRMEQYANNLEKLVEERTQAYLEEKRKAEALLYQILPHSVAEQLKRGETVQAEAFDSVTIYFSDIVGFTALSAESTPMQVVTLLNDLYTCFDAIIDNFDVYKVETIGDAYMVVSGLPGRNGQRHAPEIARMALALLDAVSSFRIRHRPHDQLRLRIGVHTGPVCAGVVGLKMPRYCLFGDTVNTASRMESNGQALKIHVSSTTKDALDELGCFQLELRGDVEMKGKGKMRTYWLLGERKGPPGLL
Assay: In vitro hNPR2 activity assay (cGMP GloSensor reporter, HEK293)
Format: cell-based
Settings: for hNPR2 0% HSA. [EC50% rel CNP]: potency relative to CNP22 (0065)
In short: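 Potency is the EC50 from a four-parameter logistic fit, also expressed relative to the in-plate CNP22 control (×100), with at least two replicates. Compounds (ten concentrations, […], HSA-free diluent with 1% OVA, 0.01% Tween20) were incubated 30 min at 37 °C on HEK293 cells co-expressing hNPR2 and a GloSensor cGMP luciferase. Luminescence detected with Bright-Glo.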

**Q.** Which “hNPR2 0% HSA. [EC50% rel CNP]” value does the source give for `CC[C@H](C)[C@@H]1NC(=O)[C@H](CCCNC(=N)N)NC(=O)[C@H](CC(=O)O)NC(=O)[C@H](CC(C)C)NC(=O)[C@@H]2CCCN2C(=O)[C@H](CC(C)C)NC(=O)CNC(=O)[C@H](Cc2ccccc2)NC(=O)[C@@H](NC(=O)CNC(=O)[C@H](CCC(N)=O)NC(=O)[C@H](CO)NC(=O)CNC(=O)CNC(=O)[C@H](CCCCN)NC(=O)[C@H](CCCCN)NC(=O)[C@H](CCC(N)=O)NC(=O)[C@H](C)NC(=O)CNC(=O)[C@H](CCCCN)NC(=O)[C@H](Cc2ccc(O)cc2)NC(=O)COCCOCCNC(=O)COCCOCCNC(=O)COCCOCCNC(=O)COCCOCCNC(=O)CC[C@H](NC(=O)CC[C@H](NC(=O)CCCCCCCCCCCCCCCCC(=O)O)C(=O)O)C(=O)O)CSSC[C@@H](C(=O)O)NC(=O)CNC(=O)[C@H](CC(C)C)NC(=O)CNC(=O)[C@H](CO)NC(=O)[C@H](CC(C)C)NC(=O)[C@H](CO)NC(=O)CNC1=O` [compound 9435] ({C18 diacid-γGlu-γGlu-AEEA-AEEA-AEEA-AEEA}-YKGAQKKGGSQGCFGLPLDRIGSLSGLGC-OH; disulfide 13-29; C-terminus assumed) here?
**A.** 73.6%

**Q.** Which “hNPR2 0% HSA. [EC50% rel CNP]” value does the source give for `CC[C@H](C)[C@@H]1NC(=O)[C@H](CCCNC(=N)N)NC(=O)[C@H](CC(=O)O)NC(=O)[C@H](CC(C)C)NC(=O)[C@@H]2CCCN2C(=O)[C@H](CC(C)C)NC(=O)CNC(=O)[C@H](Cc2ccccc2)NC(=O)[C@@H](NC(=O)CNC(=O)[C@H](CCC(N)=O)NC(=O)[C@H](CO)NC(=O)[C@H](CO)NC(=O)CNC(=O)[C@H](CCCCN)NC(=O)[C@H](CCCCN)NC(=O)[C@H](CCC(N)=O)NC(=O)[C@H](C)NC(=O)CNC(=O)[C@@H]2CCCN2C(=O)[C@H](C)NC(=O)[C@H](CCC(N)=O)NC(=O)CNC(=O)COCCOCCNC(=O)COCCOCCNC(=O)CC[C@H](NC(=O)CCCCCCCCCCCCCCCCC(=O)O)C(=O)O)CSSC[C@@H](C(=O)O)NC(=O)CNC(=O)[C@H](CC(C)C)NC(=O)CNC(=O)[C@H](CO)NC(=O)[C@H](CC(C)C)NC(=O)[C@H](CO)NC(=O)CNC1=O` [compound 9384] ({C18 diacid-γGlu-AEEA-AEEA}-GQAPGAQKKGSSQGCFGLPLDRIGSLSGLGC-OH; disulfide 15-31; C-terminus assumed) here?
**A.** 53.7%

**Q.** For `CC[C@H](C)[C@@H]1NC(=O)[C@H](CCCNC(=N)N)NC(=O)[C@H](CC(=O)O)NC(=O)[C@H](CC(C)C)NC(=O)[C@@H]2CCCN2C(=O)[C@H](CC(C)C)NC(=O)CNC(=O)[C@H](Cc2ccccc2)NC(=O)[C@@H](NC(=O)CNC(=O)[C@H](CO)NC(=O)[C@H](CO)NC(=O)[C@H](CC(C)C)NC(=O)CNC(=O)[C@H](CCCCN)NC(=O)[C@H](CCCCN)NC(=O)[C@H](CCC(N)=O)NC(=O)[C@H](C)NC(=O)CNC(=O)[C@H](CCCCN)NC(=O)[C@H](Cc2ccc(O)cc2)NC(=O)[C@H](CCCCN)NC(=O)[C@H](CCCNC(=N)N)NC(=O)[C@H](C)NC(=O)[C@H](CCC(N)=O)NC(=O)[C@@H]2CCCN2C(=O)[C@H](Cc2c[nH]cn2)NC(=O)[C@H](CCC(=O)O)NC(=O)[C@H](CCC(N)=O)NC(=O)CC[C@H](NC(=O)CC[C@H](NC(=O)CC[C@H](NC(=O)CC[C@H](NC(=O)CCCCCCCCCCCCCCCCC(=O)O)C(=O)O)C(=O)O)C(=O)O)C(=O)O)CSSC[C@@H](C(=O)O)NC(=O)CNC(=O)[C@H](CC(C)C)NC(=O)CNC(=O)[C@H](CO)NC(=O)[C@H](CC(C)C)NC(=O)[C@H](CO)NC(=O)CNC1=O` [compound 1389] ({C18 diacid-γGlu-γGlu-γGlu-γGlu}-QEHPQARKYKGAQKKGLSSGCFGLPLDRIGSLSGLGC-OH; disulfide 21-37), which “hNPR2 0% HSA. [EC50% rel CNP]” value is on record?
**A.** 52.3%

**Q.** For `CC[C@H](C)[C@@H]1NC(=O)[C@H](CCCNC(=N)N)NC(=O)[C@H](CC(=O)O)NC(=O)[C@H](CC(C)C)NC(=O)[C@@H]2CCCN2C(=O)[C@H](CC(C)C)NC(=O)CNC(=O)[C@H](Cc2ccccc2)NC(=O)[C@@H](NC(=O)CNC(=O)[C@H](CO)NC(=O)[C@H](CO)NC(=O)[C@@H](NC(=O)CNC(=O)[C@@H](NC(=O)[C@H](CCCCN)NC(=O)[C@H](CCC(N)=O)NC(=O)[C@H](C)NC(=O)CNC(=O)[C@H](Cc2c[nH]cn2)NC(=O)[C@H](Cc2ccc(O)cc2)NC(=O)[C@H](CCCCN)NC(=O)[C@H](CCCNC(=N)N)NC(=O)[C@H](C)NC(=O)COCCOCCNC(=O)COCCOCCNC(=O)CC[C@H](NC(=O)CC[C@H](NC(=O)CCCCCCCCCCCCCCCCC(=O)O)C(=O)O)C(=O)O)[C@@H](C)O)C(C)C)CSSC[C@@H](C(=O)O)NC(=O)CNC(=O)[C@H](CC(C)C)NC(=O)CNC(=O)[C@H](CO)NC(=O)[C@H](CC(C)C)NC(=O)[C@H](CO)NC(=O)CNC1=O` [compound 1354] ({C18 diacid-γGlu-γGlu-AEEA-AEEA}-ARKYHGAQKTGVSSGCFGLPLDRIGSLSGLGC-OH; disulfide 16-32), which “hNPR2 0% HSA. [EC50% rel CNP]” value is on record?
**A.** 27.5%

**Q.** Which EC50 (0% HSA, HEK293-hNPR2/GloSensor cells) does the source give for `CC[C@H](C)[C@@H]1NC(=O)[C@H](CCCNC(=N)N)NC(=O)[C@H](CCC(=O)O)NC(=O)[C@H](CC(C)C)NC(=O)[C@@H]2CCCN2C(=O)[C@H](CC(C)C)NC(=O)CNC(=O)[C@H](Cc2ccccc2)NC(=O)[C@@H](NC(=O)CNC(=O)[C@H](CCC(N)=O)NC(=O)[C@H](CO)NC(=O)CNC(=O)CNC(=O)[C@H](CCCCN)NC(=O)[C@H](CCCCN)NC(=O)[C@H](CCC(N)=O)NC(=O)[C@H](C)NC(=O)CNC(=O)[C@H](CCCCN)NC(=O)[C@H](Cc2ccc(O)cc2)NC(=O)COCCOCCNC(=O)COCCOCCNC(=O)COCCOCCNC(=O)COCCOCCNC(=O)CC[C@H](NC(=O)CC[C@H](NC(=O)CCCCCCCCCCCCCCCCC(=O)O)C(=O)O)C(=O)O)CSSC[C@@H](C(=O)O)NC(=O)CNC(=O)[C@H](CC(C)C)NC(=O)CNC(=O)[C@H](CO)NC(=O)[C@H](CC(C)C)NC(=O)[C@H](CO)NC(=O)CNC1=O` [compound 1489] ({C18 diacid-γGlu-γGlu-AEEA-AEEA-AEEA-AEEA}-YKGAQKKGGSQGCFGLPLERIGSLSGLGC-OH; disulfide 13-29) here?
**A.** 0.22 nM

**Q.** And the “hNPR2 0% HSA. [EC50% rel CNP]” value?
**A.** 3.7%

**Q.** How did the “hNPR2 0% HSA. [EC50% rel CNP]” value turn out when `CC[C@H](C)[C@@H]1NC(=O)[C@H](CCCNC(=N)N)NC(=O)[C@H](CC(=O)O)NC(=O)[C@H](CC(C)C)NC(=O)[C@@H]2CCCN2C(=O)[C@H](CC(C)C)NC(=O)CNC(=O)[C@H](Cc2ccccc2)NC(=O)[C@@H](NC(=O)CNC(=O)[C@H](CCCCN)NC(=O)[C@H](CO)NC(=O)[C@H](CC(C)C)NC(=O)CNC(=O)[C@H](CCCCN)NC(=O)[C@H](CCCCN)NC(=O)[C@H](CCC(N)=O)NC(=O)[C@H](C)NC(=O)CNC(=O)[C@H](CCC(=O)O)NC(=O)[C@H](Cc2ccc(O)cc2)NC(=O)COCCOCCNC(=O)COCCOCCNC(=O)COCCOCCNC(=O)COCCOCCNC(=O)CC[C@H](NC(=O)CCCCCCCCCCCCCCCCC(=O)O)C(=O)O)CSSC[C@@H](C(=O)O)NC(=O)CNC(=O)[C@H](CC(C)C)NC(=O)CNC(=O)[C@H](CO)NC(=O)[C@H](CC(C)C)NC(=O)[C@H](CO)NC(=O)CNC1=O` [compound 1375] ({C18 diacid-γGlu-AEEA-AEEA-AEEA-AEEA}-YEGAQKKGLSKGCFGLPLDRIGSLSGLGC-OH; disulfide 13-29; C-terminus assumed) was run?
**A.** 16.2%

**Q.** `CC[C@H](C)[C@@H]1NC(=O)[C@H](CCCNC(=N)N)NC(=O)[C@H](CC(=O)O)NC(=O)[C@H](CC(C)C)NC(=O)[C@@H]2CCCN2C(=O)[C@H](CC(C)C)NC(=O)CNC(=O)[C@H](Cc2ccccc2)NC(=O)[C@@H](NC(=O)CNC(=O)[C@H](CCCCN)NC(=O)[C@H](CO)NC(=O)[C@@H](NC(=O)CNC(=O)[C@@H](NC(=O)[C@H](Cc2c[nH]cn2)NC(=O)[C@H](CCC(N)=O)NC(=O)[C@H](C)NC(=O)CNC(=O)[C@H](Cc2c[nH]cn2)NC(=O)[C@H](Cc2ccc(O)cc2)NC(=O)[C@H](CCCCN)NC(=O)[C@H](CCCNC(=N)N)NC(=O)[C@H](C)NC(=O)COCCOCCNC(=O)COCCOCCNC(=O)CC[C@H](NC(=O)CC[C@H](NC(=O)CC[C@H](NC(=O)CCCCCCCCCCCCCCCCC(=O)O)C(=O)O)C(=O)O)C(=O)O)[C@@H](C)O)C(C)C)CSSC[C@@H](C(=O)O)NC(=O)CNC(=O)[C@H](CC(C)C)NC(=O)CNC(=O)[C@H](CO)NC(=O)[C@H](CC(C)C)NC(=O)[C@H](CO)NC(=O)CNC1=O` [compound 1420] ({C18 diacid-γGlu-γGlu-γGlu-AEEA-AEEA}-ARKYHGAQHTGVSKGCFGLPLDRIGSLSGLGC-OH; disulfide 16-32) was tested. Which “hNPR2 0% HSA. [EC50% rel CNP]” value did it give?
**A.** 87.5%
